Data published in article PMC6151529, “Design, Synthesis and Biological Evaluation of N,N-Substituted Amine Derivatives as Cholesteryl Ester Transfer Protein Inhibitors” (Molecules : A Journal of Synthetic Chemistry and Natural …, 2017).

How the values were obtained:
CYP2D6 = target: T1, CYP2D6 (Homo sapiens, UniProt P10635); assay: Cytochrome P450 inhibition assay, CYP2D6; format: in vitro ADME; settings: 10 μM compound, human liver microsomes 0.25 mg/mL, substrate dextromethorphan
T1 construct: from tissue; host or cells: human liver microsomes
T1 sequence (P10635 whole entry): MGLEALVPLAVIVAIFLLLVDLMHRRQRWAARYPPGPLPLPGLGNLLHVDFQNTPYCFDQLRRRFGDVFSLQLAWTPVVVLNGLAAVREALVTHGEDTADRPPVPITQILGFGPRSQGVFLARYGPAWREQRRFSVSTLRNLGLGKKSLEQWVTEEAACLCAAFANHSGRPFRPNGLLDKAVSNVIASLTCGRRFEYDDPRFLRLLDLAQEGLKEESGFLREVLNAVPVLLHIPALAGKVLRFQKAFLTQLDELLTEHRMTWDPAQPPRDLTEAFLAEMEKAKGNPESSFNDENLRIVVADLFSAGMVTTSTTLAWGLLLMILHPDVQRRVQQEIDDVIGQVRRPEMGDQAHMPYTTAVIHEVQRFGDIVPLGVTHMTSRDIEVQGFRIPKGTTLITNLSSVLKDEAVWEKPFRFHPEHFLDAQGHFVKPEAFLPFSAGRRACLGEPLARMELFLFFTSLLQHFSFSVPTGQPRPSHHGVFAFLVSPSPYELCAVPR
Protocol: (§1) Five specific probe substrates (CYP3A4, 2 μM midazolam; CYP2D6, 5 μM dextromethorphan; CYP2C9, 5 μM diclofenac; CYP1A2, 10 μM phenacetin; CYP2C19, 30 μM S-mephenytoin) were used to evaluated cytochrome P450 inhibition in human liver microsomes (0.25 mg/mL). A mixture of 20 μL specific probe substrate solution and 20 μL buffer solution (100 mM K3PO4, 33 mM MgCl2, pH = 7.4) was added compound (2 μL) and 158 μL human liver microsomes solution (0.25 mg/mL). The mixture were incubated at 37 °C for 10 min and another 10 min underwent after 20 μL NADPH solution added. Consecutively, 400 µL cold stop solution (200 ng/mL tolbutamide and 200 ng/mL labetalol in acetonitrile) was added to terminated the reaction. After the reactions were terminated, The plates were centrifuged (4000 rpm) at room temperature for 20 min, and the supernatants were analysed by LC/MS/MS.

CYP2C9 = target: T2, CYP2C9 (Homo sapiens, UniProt P11712); assay: Cytochrome P450 inhibition assay, CYP2C9; format: in vitro ADME; settings: human liver microsomes, pH 7.4, probe diclofenac (5 μM), 10 μM compound, human liver microsomes 0.25 mg/mL, substrate diclofenac, read-out: CYPs Direct Inhibition Mean (10 μM) 2C9
T2 construct: from tissue; host or cells: human liver microsomes
T2 sequence (P11712 whole entry): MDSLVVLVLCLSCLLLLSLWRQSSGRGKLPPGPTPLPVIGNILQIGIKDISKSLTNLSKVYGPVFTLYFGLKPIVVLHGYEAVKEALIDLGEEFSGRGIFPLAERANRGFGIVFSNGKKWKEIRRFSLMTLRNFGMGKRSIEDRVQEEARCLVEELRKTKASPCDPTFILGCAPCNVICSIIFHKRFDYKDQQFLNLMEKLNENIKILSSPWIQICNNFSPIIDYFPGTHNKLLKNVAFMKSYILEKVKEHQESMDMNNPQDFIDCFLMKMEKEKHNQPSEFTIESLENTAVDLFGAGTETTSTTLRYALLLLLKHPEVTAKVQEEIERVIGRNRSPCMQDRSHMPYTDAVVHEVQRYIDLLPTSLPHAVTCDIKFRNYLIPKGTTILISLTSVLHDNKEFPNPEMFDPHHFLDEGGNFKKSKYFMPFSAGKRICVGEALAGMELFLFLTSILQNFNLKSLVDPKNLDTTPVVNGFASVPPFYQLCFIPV
Protocol: as §1

[1] = Metabolic stability in human liver microsomes; format: in vitro ADME; settings: 37 °C, NADPH, 0-60 min, read-out: HLM Stability (human liver microsomal intrinsic clearance)
Protocol: (§2) Ten μL (100 μM/L) of compound and 80 μL liver microsomes were mixture and incubated at 37 °C for 10 min, and then 10 μL NADPH regenerating system was added. Samples were obtained at 0 min, 5 min, 10 min, 20 min, 30 min and 60 min respectively, and 300 μL stop solution (cold in 4 °C, including 100 ng/mL tolbutamide and 100 ng/mL labetalol) was added to terminate the reaction. After oscillating for 10 min, the plates were centrifuged (4000 rpm) at room temperature for 20 min, and the supernatants were used for analyzation.

CYP1A2 = target: T3, CYP1A2 (Homo sapiens, UniProt P05177); assay: Cytochrome P450 inhibition assay, CYP1A2; format: in vitro ADME; settings: 10 μM compound, human liver microsomes 0.25 mg/mL, substrate phenacetin
T3 construct: from tissue; host or cells: human liver microsomes
T3 sequence (P05177 1-516): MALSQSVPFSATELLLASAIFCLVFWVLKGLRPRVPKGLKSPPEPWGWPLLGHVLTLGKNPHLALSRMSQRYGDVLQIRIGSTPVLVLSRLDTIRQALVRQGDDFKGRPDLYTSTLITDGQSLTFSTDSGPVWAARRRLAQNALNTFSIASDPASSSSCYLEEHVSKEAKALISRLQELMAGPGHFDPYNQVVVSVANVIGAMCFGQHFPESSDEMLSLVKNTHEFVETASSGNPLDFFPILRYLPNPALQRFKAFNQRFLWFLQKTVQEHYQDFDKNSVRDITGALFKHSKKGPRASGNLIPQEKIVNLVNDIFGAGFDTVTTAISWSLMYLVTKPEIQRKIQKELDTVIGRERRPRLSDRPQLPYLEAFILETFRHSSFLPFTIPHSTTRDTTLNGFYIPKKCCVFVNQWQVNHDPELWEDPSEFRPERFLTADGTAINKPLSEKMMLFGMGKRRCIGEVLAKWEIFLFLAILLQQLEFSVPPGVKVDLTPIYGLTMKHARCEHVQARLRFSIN
Protocol: as §1

CETP = target: T4, CETP (Homo sapiens, UniProt P11597); assay: CETP inhibitory activity, BODIPY-CE fluorescence assay (CETP RP Activity Assay Kit); format: biochemical
T4 construct: purchased Roar, New York, NY, USA RB-RPAK
T4 sequence (P11597 18-493): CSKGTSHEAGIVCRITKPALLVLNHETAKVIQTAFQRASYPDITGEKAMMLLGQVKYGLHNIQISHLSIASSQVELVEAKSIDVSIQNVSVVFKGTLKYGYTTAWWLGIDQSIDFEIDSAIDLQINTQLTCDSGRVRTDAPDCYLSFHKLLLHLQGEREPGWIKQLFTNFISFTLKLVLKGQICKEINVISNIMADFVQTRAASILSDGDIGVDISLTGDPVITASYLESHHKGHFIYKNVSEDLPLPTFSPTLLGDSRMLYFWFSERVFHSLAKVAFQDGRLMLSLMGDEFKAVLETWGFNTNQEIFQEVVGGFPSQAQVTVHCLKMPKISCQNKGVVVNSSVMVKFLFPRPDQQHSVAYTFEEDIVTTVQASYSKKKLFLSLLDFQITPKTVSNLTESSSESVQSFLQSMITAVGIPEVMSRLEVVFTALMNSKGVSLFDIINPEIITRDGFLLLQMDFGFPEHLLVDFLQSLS
Protocol: All tested compounds were dissolved in 100% DMSO, making sure the compound was dissolved totally. The solution was vibrated hard on an oscillator for more than 30 s and then stored in a nitrogen cabinet. The stock solutions (10 mM) were diluted with DMSO for an 8-point titration (1:5 serial dilutions) in a 96-well dilution plate. […] Compounds were tested at eight concentrations, and the fluorescence intensity were measured using a fluorometer (ExEm = 465/535 nm). The IC50 was determined from a curve fit of the data with each concentration tested three times.

CYP3A4 = target: T5, CYP3A4 (Homo sapiens, UniProt P08684); assay: Cytochrome P450 inhibition assay, CYP3A4; format: in vitro ADME; settings: human liver microsomes, pH 7.4, probe midazolam (2 μM), 10 μM compound, human liver microsomes 0.25 mg/mL, substrate midazolam, read-out: CYPs Direct Inhibition Mean (10 μM) 3A4
T5 construct: from tissue; host or cells: human liver microsomes
T5 sequence (P08684 whole entry): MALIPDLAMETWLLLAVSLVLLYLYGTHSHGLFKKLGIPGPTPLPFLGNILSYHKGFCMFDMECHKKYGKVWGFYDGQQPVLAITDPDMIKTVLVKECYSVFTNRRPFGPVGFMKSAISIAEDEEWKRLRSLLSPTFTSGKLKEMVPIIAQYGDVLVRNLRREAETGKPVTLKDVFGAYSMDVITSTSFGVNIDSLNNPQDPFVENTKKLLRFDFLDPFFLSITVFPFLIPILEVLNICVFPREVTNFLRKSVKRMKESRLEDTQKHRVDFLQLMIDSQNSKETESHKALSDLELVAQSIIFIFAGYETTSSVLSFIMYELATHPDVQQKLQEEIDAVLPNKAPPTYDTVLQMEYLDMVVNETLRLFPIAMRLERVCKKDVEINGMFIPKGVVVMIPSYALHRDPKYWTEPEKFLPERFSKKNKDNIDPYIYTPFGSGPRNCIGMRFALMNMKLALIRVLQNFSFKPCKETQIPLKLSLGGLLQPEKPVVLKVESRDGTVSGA
Protocol: as §1

[2] = Metabolic stability in rat liver microsomes; format: in vitro ADME; settings: 37 °C, NADPH, 0-60 min, read-out: RLM Stability (rat liver microsomal intrinsic clearance)
Protocol: as §2

CYPs Direct Inhibition Mean (10 μM) 2D6 (CYP2D6): No inhibition
inhibition at 10 min, 10 µM (CYP2D6; pH 7.4, probe dextromethorphan (5 μM), read-out: CYPs Direct Inhibition Mean (10 μM) 2D6): < 20%
inhibition at 10 min, 10 µM (CYP2C9): < 20%
microsomal CLint at 10 μM [1]: 119 µL/min/mg
CYPs Direct Inhibition Mean (10 μM) 1A2 (CYP1A2): No inhibition
inhibition at 10 min, 10 µM (CYP1A2; pH 7.4, probe phenacetin (10 μM), read-out: CYPs Direct Inhibition Mean (10 μM) 1A2): < 20%
activity weaker than the reference compound (fold) (CETP; IC50 versus reference compound anacetrapib): 10 fold
IC50 (CETP; read-out: IC50 (CETP inhibition)): 380 ± 80 nM
inhibition at 10 min, 10 µM (CYP3A4): < 20%
microsomal CLint at 10 μM [2]: 146 µL/min/mg
SMILES: COc1ccc(C(C)C)cc1C1=C(CN(Cc2cc(C(F)(F)F)cc(C(F)(F)F)c2)c2nnn(CC(=O)O)n2)CC(C)(C)CC1 [Compound 17, N-(3,5-Bis(trifluoromethyl)benzyl)-N-((2-(5-isopropyl-2-methoxyphenyl)-5,5-dimethylcyclohex-1-enyl)-methyl)-2H-tetrazol-5-amine-2-acetic acid]
